Laboratory results published in patent US20240368131A1, “OXOINDOLINYL AMIDE DERIVATIVES FOR INHIBITING NLRP3 AND USES THEREOF” (VENTUS THERAPEUTICS U.S. INC., priority 2022, published 2024).

Columns and labels:
Type in all cases: cell-based
[1] = biological target: T1, mouse NLRP3 (Mus musculus, UniProt Q8R4B8); assay: Mouse Whole Blood (mWB) NLRP3 Assay (IL-1β MSD); conditions: CD1 mouse whole blood, LPS 1 μg/mL 5 h, ATP 5 mM; class symbols
T1 construct: Blood was drawn from female CD1 mice (9 to 10 weeks) by cardiac puncture; from tissue; host or cells: whole blood of female CD1 mice, LPS-primed, ATP-stimulated
T1 sequence (Q8R4B8 whole entry): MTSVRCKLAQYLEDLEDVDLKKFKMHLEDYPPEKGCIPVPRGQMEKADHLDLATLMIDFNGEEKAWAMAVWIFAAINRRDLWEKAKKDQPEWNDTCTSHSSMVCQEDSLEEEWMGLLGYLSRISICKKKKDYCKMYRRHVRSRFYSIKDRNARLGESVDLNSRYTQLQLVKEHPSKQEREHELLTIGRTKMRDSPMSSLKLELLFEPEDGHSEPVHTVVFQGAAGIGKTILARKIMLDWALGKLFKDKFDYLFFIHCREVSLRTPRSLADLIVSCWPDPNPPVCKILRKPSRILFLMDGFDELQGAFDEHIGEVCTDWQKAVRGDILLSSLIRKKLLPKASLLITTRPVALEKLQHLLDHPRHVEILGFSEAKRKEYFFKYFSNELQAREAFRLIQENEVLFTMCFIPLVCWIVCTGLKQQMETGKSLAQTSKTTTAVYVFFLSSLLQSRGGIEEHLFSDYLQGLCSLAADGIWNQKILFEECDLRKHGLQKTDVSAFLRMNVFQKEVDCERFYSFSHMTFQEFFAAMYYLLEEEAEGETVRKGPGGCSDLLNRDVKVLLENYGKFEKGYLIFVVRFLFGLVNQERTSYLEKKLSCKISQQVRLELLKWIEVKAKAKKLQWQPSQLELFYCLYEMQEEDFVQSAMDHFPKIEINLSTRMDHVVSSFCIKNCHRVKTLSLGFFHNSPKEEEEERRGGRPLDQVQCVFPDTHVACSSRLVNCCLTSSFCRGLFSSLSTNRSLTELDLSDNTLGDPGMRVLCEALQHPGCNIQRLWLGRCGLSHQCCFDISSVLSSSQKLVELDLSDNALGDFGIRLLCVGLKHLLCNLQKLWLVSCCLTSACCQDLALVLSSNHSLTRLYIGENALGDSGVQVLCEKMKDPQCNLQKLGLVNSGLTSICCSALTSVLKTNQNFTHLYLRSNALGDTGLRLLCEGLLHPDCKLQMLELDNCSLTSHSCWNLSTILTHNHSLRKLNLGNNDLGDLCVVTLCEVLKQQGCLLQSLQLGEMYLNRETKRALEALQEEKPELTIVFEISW
Protocol: Reagents: The following reagents were used: blood collection tubes (Heparin); U-bottom 96-well tissue culture (Falcon 353077); HBSS for LPS, ATP and compound dilutions (Gibco 24020-117); and LPS, E. coli serotype 026:B6 (Sigma L-2654).
Mouse IL-1b MSD assay: Blood was drawn from female CD1 mice (9 to 10 weeks) by cardiac puncture. Blood was plated (135 μL) per well in 96-well U-bottom plates. 7.5 μL of 20× LPS (20 μg/mL, final concentration of 1 μg/mL) was added and mixed by gentle pipetting, and the mixture was incubated in a TC incubator for five hours. 7.5 μL of 20× compound or vehicle per well was added and mixed by gentle pipetting. Compounds were diluted 1/50 in HBSS to prepare a 20× dilution curve in 2% DMSO. The mixture was incubated for 30 minutes in a TC incubator with shaking (450 rpm). 5 μl of 31× ATP (155 mM, final concentration of 5 mM) was added and mixed by gentle pipetting. The mixture was incubated in a TC incubator for 30 minutes with shaking (450 rpm). The plate was centrifuged for 10 minutes at 800×g and ˜70 μL of plasma was removed. Plasma was frozen if required. Mouse IL-1b was analyzed with IL-1b MSD assay (K152TUK). […]
mWB IL-1β Assay: A represents an IC50 value <0.3 μM; B represents an IC50 value ≥0.3 μM and <0.5 μM; C represents an IC50 value ≥0.5 μM and <1.0 μM; D represents an IC50 value ≥1.0 μM.

[2] = biological target: T2, human NLRP3 (Homo sapiens, UniProt Q96P20); assay: Human Whole Blood (hWB) NLRP3 Assay (IL-1β MSD); conditions: LPS 1 μg/ml 4.5 h, ATP 30 min, class symbols
T2 sequence (Q96P20 whole entry): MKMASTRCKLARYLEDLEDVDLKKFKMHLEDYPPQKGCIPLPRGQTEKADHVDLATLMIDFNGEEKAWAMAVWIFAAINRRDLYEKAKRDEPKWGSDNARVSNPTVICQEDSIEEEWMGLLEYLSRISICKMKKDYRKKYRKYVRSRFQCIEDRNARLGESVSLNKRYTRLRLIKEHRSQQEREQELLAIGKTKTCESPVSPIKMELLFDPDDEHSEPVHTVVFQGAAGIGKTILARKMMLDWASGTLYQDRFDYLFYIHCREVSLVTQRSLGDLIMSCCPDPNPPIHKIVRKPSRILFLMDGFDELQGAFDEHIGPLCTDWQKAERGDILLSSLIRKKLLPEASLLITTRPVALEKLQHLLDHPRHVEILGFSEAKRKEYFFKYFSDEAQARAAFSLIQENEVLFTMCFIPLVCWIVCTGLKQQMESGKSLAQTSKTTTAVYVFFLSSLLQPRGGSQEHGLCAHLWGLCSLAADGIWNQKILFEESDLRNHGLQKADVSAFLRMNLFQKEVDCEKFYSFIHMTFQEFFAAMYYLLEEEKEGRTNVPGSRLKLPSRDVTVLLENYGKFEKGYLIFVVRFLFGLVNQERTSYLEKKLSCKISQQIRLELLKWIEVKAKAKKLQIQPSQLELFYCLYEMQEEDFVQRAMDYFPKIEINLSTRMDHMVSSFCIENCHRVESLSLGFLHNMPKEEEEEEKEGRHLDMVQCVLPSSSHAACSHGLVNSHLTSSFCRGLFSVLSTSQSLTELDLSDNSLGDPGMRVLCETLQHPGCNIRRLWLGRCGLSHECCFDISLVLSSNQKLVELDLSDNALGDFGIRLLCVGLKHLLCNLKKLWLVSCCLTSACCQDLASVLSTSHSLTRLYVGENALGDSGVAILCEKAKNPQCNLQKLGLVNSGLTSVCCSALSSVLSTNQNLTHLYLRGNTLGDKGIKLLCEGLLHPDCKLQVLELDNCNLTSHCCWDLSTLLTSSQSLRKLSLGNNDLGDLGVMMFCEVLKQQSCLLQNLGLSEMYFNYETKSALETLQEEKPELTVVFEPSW
Protocol: Human whole blood was drawn from healthy volunteers after obtaining written informed consent. Heparin lithium coated tubes were used to collect blood from volunteers. Blood samples were distributed on 96 well plates using 90 μl per well. Priming was performed by adding 5 μl of LPS (O26:B6; Sigma L-2654) at a final concentration of 1 μg/ml for 4.5 hours in a humidified incubator with 37° C., 5% CO2. Thirty minutes prior to NLRP3 activation, 5 μl of a 20× compound solution or vehicle (2% DMSO) was added to each well and plates were incubated on a shaker (450 rpm) in a humidified incubator with 37° C., 5% CO2. Activation was then performed by adding 3.3 μl of a 31× ATP solution per well. At the end of the 30 minutes stimulation, the plates were centrifuged (800 g, 10 min, room temperature) and the plasma from each well was frozen at −80° C. IL-1β levels in the supernatant were analyzed using a mesoscale discovery assay (MSD K151TUK) according to the manufacturers' instructions.
hWB IL-1β Assay: A represents an IC50 value <0.3 μM; B represents an IC50 value ≥0.3 μM and <0.5 μM; C represents an IC50 value ≥0.5 μM and <1.0 μM; D represents an IC50 value >1.0 μM.

[3] = biological target: T2, human NLRP3; assay: Human PBMC NLRP3 Assay (IL-1β release); design: Human PBMCs (Normal): iXCells Cat #10HU-003; host or cells: human PBMCs (normal donors), LPS-primed, nigericin-stimulated; conditions: human PBMCs
Protocol: Reagents: Human PBMCs (Normal): iXCells Cat #10HU-003; RPMI 1640 medium (ATCC modification): ThermoFisher Cat #A1049101 (Complete Media: 10% FBS, 1% Pen/Strep; Assay Media: 1% Pen/Strep; 75 cm^2 cell culture flask: Corning Cat #430641U; 96-well cell culture plates: VWR Cat #10062-900; LPS (E. coli 026:B6): Sigma Cat #L2654, stock 5 mg/mL in PBS; Nigericin sodium salt: Sigma Cat #N7143, stock 5 mg/mL (6.7 mM) in ethanol.
Cryopreserved PBMCs (10×10^6 cells/vial) were rapidly thawed in a 37° C. water bath for 2 min and transferred in 10 mL Complete Media. Cells were then centrifuged at 1200 RPM for 5 min, resuspended in 40 mL of Complete Media, transferred in a 75 cm^2 cell culture flask and incubated overnight at 37° C. with 5% CO2. The next day, PBMCs were centrifuged, resuspended in 30 mL Assay Media (˜3.3×10^5 cells/mL) and distributed at 100 μL/well in a 96-well cell culture plate. 50 μl of Assay Media containing 300 ng/ml of LPS was then added to each well except for the untreated control wells (50 μl Assay Media without LPS). Cells were then primed with LPS for 4 h at 37° C. with 5% CO2. A concentration response curve (CRC) was prepared of 500× test compound in 100% dimethyl sulfoxide (DMSO). The CRC was then diluted 1:25 in Assay Media and then further diluted 1:5 in Assay Media resulting in a final 4× CRC in 0.8% DMSO/Assay Media. 50 μL/well of 4× test compound CRC or vehicle (0.8% DMSO/Assay Media) was then transferred into each well and subsequently incubated for 30 min at 37° C. with 5% CO2. Cells were stimulated by adding 4 μL of 500 μM Nigericin, for 1 h at 37° C. with 5% CO2 Plates were then centrifuged at 1200 RPM for 5 min and 100 μl of the media was transferred to a clean 96-well storage plate and stored at −80° C. until analyzed. Cytokine measurements were performed using the mesoscale platform. Compounds were added 30 minutes before priming the cells with LPS when TNFα was required to be quantified in the cytokine panel to confirm selectivity.
Human PBMC NLRP3 Assay: A represents an IC50 value <0.3 μM; B represents an IC50 value ≥0.3 μM and <0.5 μM; C represents an IC50 value ≥0.5 μM and <1.0 μM; D represents an IC50 value >1.0 μM and <10 μM; E represents an IC50 value >10 μM.

[4] = LPS priming 4 h, nigericin stimulation 1 h, class symbols
[5] = LPS priming, nigericin stimulation, numeric values of Tables C1-C4

| IC50 [1] [µM] | IC50 [2] [µM] | IC50 [3, 4] [µM] | IC50 [3, 5] [µM] | Structure (SMILES) |
| --- | --- | --- | --- | --- |
| < 0.3 | 0.5 to 1 | < 0.3 | 0.046 | CC1(C)C(=O)N(CC(=O)NCCCC(=O)O)c2ccc(C3CC3)c(F)c21 [Compound 56, 4-(2-(5-cyclopropyl-4-fluoro-3,3-dimethyl-2-oxoindolin-1-yl)acetamido)butanoic acid] |
| < 0.3 | 0.3 to 0.5 | < 0.3 | 0.059 | CC1(C)C(=O)N(CC(=O)NCCCC(=O)O)c2c(F)cc(C3CC3)c(F)c21 [Compound 57, 4-(2-(5-cyclopropyl-4,7-difluoro-3,3-dimethyl-2-oxoindolin-1-yl)acetamido)butanoic acid] |
| < 0.3 | 0.3 to 0.5 | < 0.3 |  | C[C@@H](CCC(=O)O)NC(=O)CN1C(=O)C(C)(C)c2c(F)c(C3CC3)cc(F)c21 [Compound 59A, (S)-4-(2-(5-cyclopropyl-4,7-difluoro-3,3-dimethyl-2-oxoindolin-1-yl)acetamido)pentanoic acid] |
| < 0.3 | 0.3 to 0.5 |  |  | C[C@@H](CNC(=O)CN1C(=O)C(C)(C)c2c(F)c(C3CC3)cc(F)c21)CC(=O)O [Compound 61A, (R)-4-(2-(5-cyclopropyl-4,7-difluoro-3,3-dimethyl-2-oxoindolin-1-yl)acetamido)-3-methylbutanoic acid] |
| < 0.3 | 0.3 to 0.5 |  |  | CC1(C)C(=O)N(CC(=O)NC[C@H](F)CC(=O)O)c2c(F)cc(C3CC3)c(F)c21 [Compound 62A, (R)-4-(2-(5-cyclopropyl-4,7-difluoro-3,3-dimethyl-2-oxoindolin-1-yl)acetamido)-3-fluorobutanoic acid] |
| < 0.3 | 0.5 to 1 | < 0.3 |  | CC1(C)C(=O)N(CC(=O)NC[C@H](F)CC(=O)O)c2ccc(C3CC3)c(F)c21 [Compound 63A, (R)-4-(2-(5-cyclopropyl-4-fluoro-3,3-dimethyl-2-oxoindolin-1-yl)acetamido)-3-fluorobutanoic acid] |
| < 0.3 | 0.5 to 1 | < 0.3 | 0.015 | CC1(C)C(=O)N(CC(=O)NCCCc2nnn[nH]2)c2c(F)cc(C3CC3)c(F)c21 [Compound 65, N-(3-(1H-tetrazol-5-yl)propyl)-2-(5-cyclopropyl-4,7-difluoro-3,3-dimethyl-2-oxoindolin-1-yl)acetamide] |
| < 0.3 | < 0.3 | < 0.3 | 0.024 | CC1(C)C(=O)N(CC(=O)NCCCC(=O)O)c2c(F)cc(C3CC3)cc21 [Compound 66, 4-(2-(5-cyclopropyl-7-fluoro-3,3-dimethyl-2-oxoindolin-1-yl)acetamido)butanoic acid] |

More lines, now with the values behind:

| Structure (SMILES) | IC50 [1] [µM] | IC50 [2] [µM] | IC50 [3, 4] [µM] | IC50 [3, 5] [µM] |
| --- | --- | --- | --- | --- |
| C[C@@H](CC(=O)O)[C@H](NC(=O)CN1C(=O)C(C)(C)c2c1ccc(C1CC1)c2F)C1CC1 (single isomer, unassigned) [Compound 60A*] | < 0.3 | 0.5 to 1 | < 0.3 |  |
| CC1(C)C(=O)N(CC(=O)NCCCc2nnn[nH]2)c2ccc(Br)cc21 [Compound 1, N-(3-(1H-tetrazol-5-yl)propyl)-2-(5-bromo-3,3-dimethyl-2-oxoindolin-1-yl)acetamide] | < 0.3 | > 1 | < 0.3 |  |
| CC1(C)C(=O)N(CC(=O)NCCCC(=O)O)c2ccc(Br)cc21 [Compound 2, 4-(2-(5-bromo-3,3-dimethyl-2-oxoindolin-1-yl)acetamido)butanoic acid] | < 0.3 | > 1 | < 0.3 | 0.15 |
| CC1(C)C(=O)N(CC(=O)N[C@@H]2CCCN(c3nnn[nH]3)C2)c2ccc(Br)cc21 [Compound 11A, (R)-N-(1-(1H-tetrazol-5-yl)piperidin-3-yl)-2-(5-bromo-3,3-dimethyl-2-oxoindolin-1-yl)acetamide] | < 0.3 | > 1 |  |  |
| CC1(C)C(=O)N(CC(=O)NCCCC(=O)O)c2c(O)cc(Br)cc21 [Compound 16, 4-(2-(5-bromo-7-hydroxy-3,3-dimethyl-2-oxoindolin-1-yl)acetamido)butanoic acid] | 0.5 to 1 | 0.5 to 1 | < 0.3 |  |
| CC1(C)C(=O)N(CC(=O)NCCCC(=O)O)c2c(F)cc(Br)cc21 [Compound 24, 4-(2-(5-bromo-7-fluoro-3,3-dimethyl-2-oxoindolin-1-yl)acetamido)butanoic acid] | < 0.3 |  | < 0.3 | 0.02 |
| C[C@H]1C[C@@H](NC(=O)CN2C(=O)C(C)(C)c3cc(Br)cc(O)c32)CN(c2nnn[nH]2)C1 [Compound 26, 2-(5-bromo-7-hydroxy-3,3-dimethyl-2-oxoindolin-1-yl)-N-((3R,5S)-5-methyl-1-(1H-tetrazol-5-yl)piperidin-3-yl)acetamide] | 0.5 to 1 |  |  |  |
| CC1(C)C(=O)N(CC(=O)NC[C@H](F)CC(=O)O)c2c(F)cc(C(F)(F)F)c(F)c21 [Compound 64A, (R)-4-(2-(4,7-difluoro-3,3-dimethyl-2-oxo-5-(trifluoromethyl)indolin-1-yl)acetamido)-3-fluorobutanoic acid] | < 0.3 | 0.5 to 1 | < 0.3 |  |
